Experiments:
[1] = tested on: VEGFR kinases; conditions: not dependent on a specific ligand; cited from earlier work
[2] = Particle size volume distribution by laser diffraction (Sympatec Helos); format: physicochemical; conditions: spherical particles presumed
Source text: When used herein, the term “micronised” is intended to mean that the particle size distribution is so that at least 90% of the particles have a particle diameter of less than 30 μm (calculated from the volume distribution curve under the presumption of spherical particles), i.e. a d90 value of at the most 30 μm. It is well-known to the skilled person that parameters used to describe a given particle size distribution may vary considerably dependent on the specific equipment and settings used. Therefore, it is important to note that whenever the terms “particle size distribution”, “particle diameter”, “d50”, “d90”, “d95”, “d99”, etc. are used herein it should be understood that the specific values or ranges used in connection therewith are always meant to be determined from the volume distribution curve under the presumption of spherical particles using laser diffraction and the conditions set forth in the section entitled “Determination of particle size distribution” herein.
Determination of the particle size volume distribution of pynasunate was performed by laser diffraction using the following equipment and settings: […]

SMILES | inhibition of VEGFR kinases [1] | d50 particle size diameter [2] | d90 particle size diameter [2]
Clc1ccc(Nc2nnc(Cc3ccncc3)c3ccccc23)cc1 [(4-chlorophenyl)[4-(4-pyridylmethyl)-phthalazin-1-yl]] | inhibitor of all three VEGFR kinases | – | –
Clc1ccc(Nc2nnc(Cc3ccncc3)c3ccccc23)cc1 [pynasunate, (4-chlorophenyl)[4-(4-pyridylmethyl)-phthalazin-1-yl]ammonium hydrogen succinate] | – | 6 μm | 15 μm
